According to patent US4613613A, “γ-butyrolactone derivatives, process for preparing the same and immunomodulating compositions containing the same as active ingredients” (Mitsubishi Yuka Pharmaceutical Co., Ltd., priority 1983, dated 1986):

Columns and labels:
[1] = tested on: adjuvant arthritis; assay: Adjuvant Arthritis Inhibiting Activity (paw volume); assay type: in vivo, rat (F-344 strain male rats); details: measured after 24 days, * p < 0.05 (Ttest)
Method: F-344 strain male rats of 9 weeks old (Nippon Charles River), each group consisting of 8-10 rats, were employed for assessment of adjuvant arthritis inhibiting activity of the present compounds Arthritis was induced by subsutaneous injection of 100 μl of a 6% paraffin oil suspension of Mycobacterium butyricum into hind paw. The test compound was suspended in a 1% tragacanth solution and then administered orally everyday from the day of adjuvant injection up to the 21st day at a volume of 5 ml/kg. After 24 days from the sensitization, paw volume was measured Oral administration of solely a 1% tragacanth solution was applied for control.

[2] = Acute Toxicity Test (oral, mortality by 3-days observation); details: mouse, in vivo, ddY male mice
Method: Using ddY strain male mice of 7-8 weeks old, each group consisting of 5 mice, a suspension of the present compound in a 1% tragacanth solution was administered orally. Then, mortality was examined by 3-days observation.

[3] = tested on: living body; details: background, known immunomodulating agents; cited from earlier work
[4] = 30 mg/Kg oral everyday to 21st day, Controls: 3.48 ± 0.11 (No. 23), 3.62 ± 0.06 (No. 40), 3.58 ± 0.20 (No. 83)
[5] = 300 mg/Kg oral everyday to 21st day, Controls: 3.48 ± 0.11 (No. 23), 3.62 ± 0.06 (No. 40)

Row | SMILES | Paw volume [1, 4] [mL] | LD50 at 72 h [2] [mg/kg] | toxicity to a living body (in words) [3] | also measured
1 | CC(=O)SCC1C(=O)OCC1c1ccccc1 (stereo not drawn) [Compound 40, α-acetylthiomethyl-β-phenyl-γ-butyrolactone] | 3.18 ± 0.17 | > 2000 | – | Paw volume [1, 5]: 3.18 ± 0.18 mL
2 | COc1ccc(C2COC(=O)C2CSC2CCCCC2)cc1 (stereo not drawn) [Compound 83, α-cyclohexylthiomethyl-β-(p-methoxyphenyl)-γ-butyrolactone] | 3.00 ± 0.16 | – | – | –
3 | O=C(SCC1C(=O)OCC1c1ccc(Cl)cc1)c1ccccc1 (stereo not drawn) [Compound 74, α-benzoylthiomethyl-β-(p-chlorophenyl)-γ-butyrolactone] | – | > 4000 | – | –
4 | Cc1ccc(C(=O)SCC2C(=O)OCC2c2ccc(Cl)cc2)cc1 (stereo not drawn) [Compound 1, β-(p-chlorophenyl)-α-(p-methylbenzoylthiomethyl)-γ-butyrolactone] | – | > 4000 | – | –
5 | c1ccc([C@H]2CN3CCSC3=N2)cc1 [Levamisole, levamisole, reference compound] | – | < 1000 | strong toxicity | –
6 | O=C([O-])c1ccccc1Nc1cc(Cl)ccc1C(=O)[O-].[Na+].[Na+] [N-(2-carboxyphenyl)-4-chloroanthranilic acid disodium salt] | – | – | strong toxicity | –
7 | O=C1OCC(c2ccccc2)C1CSCc1ccccc1 (stereo not shown) [Compound 84] | – | > 4000 | – | –
8 | O=C(SC[C@@H]1C(=O)OC[C@H]1c1ccc(Cl)cc1)c1ccc(F)cc1 (relative stereo) [Compound 23] | 2.78 ± 0.23 | > 4000 | – | Paw volume ([1]; 3 mg/Kg oral everyday to 21st day, Control 3.48 ± 0.11): 2.84 ± 0.25 mL; Paw volume [1, 5]: 3.03 ± 0.25 mL
9 | CC(C)(S)[C@@H](N)C(=O)O [D-penicillamine] | – | – | strong toxicity | –
10 | Cc1ccc(C(=O)SCC2C(=O)OCC2c2ccccc2)cc1 (stereo not shown) [Compound 7] | – | > 4000 | – | –
